Laboratory results published in US8263632B2, “Aminopyridine derivatives having Aurora A selective inhibitory action” (Vertex Pharmaceuticals Incoporated, priority 2009, dated 2012).
Like-named read-outs stand apart in the source and are kept apart here.

Legend:
[1] = biological target: T1, Aurora B (Homo sapiens, UniProt Q96GD4); assay: Aurora B inhibitory action (33P-ATP kinase assay, Kemptide substrate); format: biochemical; conditions: 100 μM unlabeled ATP, 100 μM substrate peptide, 30° C. for 20 minutes
T1 construct: histidine tag (N); made in house; host or cells: Escherichia coli BL21-CodonPlus(DE3)-RIL
Excerpt: Aurora B Inhibitory Action
(1) Purification of Aurora B
cDNA of Aurora B having histidine tag fused at the amino terminal was integrated into an expression vector, which was then highly expressed in Escherichia coli BL21-CodonPlus(DE3)-RIL cells. The Escherichia coli cells were recovered and solubilized, and then the histidine-tagged […] protein was adsorbed onto a nickel chelate column and eluted from the column with imidazole. The active fraction was desalted with a desalting column to give a pure enzyme.
(2) Measurement of activity of Aurora B
For measurement of the activity of Aurora B, the substrate used was Kemptide (Leu-Arg-Arg-Ala-Ser-Leu-Gly) (SEQ. ID. NO.: 1), a synthetic peptide purchased from Sigma-Aldrich, Inc. [Certificate of analysis (Upstate, Inc.)].
Reaction was conducted by a partial modification of the method of activity measurement for Aurora A. The amount of the reaction liquid was 21.1 μL, and the composition of the reaction buffer (R2 buffer) was 50 mM Tris-hydrochloride buffer (pH 7.4)/15 mM magnesium acetate/0.2 mM ethylenediamine-N,N,N′,N′-tetraacetate (EDTA). To this, purified Aurora B, 100 μM of a substrate peptide, 100 μM of unlabeled adenosine triphosphate (ATP) and 1 μCi of [γ-^33P] labeled ATP (2,500 Ci/mmole or more) were added, and the mixture was reacted at 30° C. for 20 minutes. Then, 10 μL of 350 mM phosphate buffer was added to the reaction system to stop the reaction. The substrate peptide was adsorbed on a P81 paper filter 96-well plate and then washed with 130 mM phosphate buffer for several times. The radiation activity of the peptide was measured with a liquid scintillation counter. The [γ-^33P] labeled ATP was purchased from Amersham Biosciences Co., Ltd.

[2] = biological target: T2, Aurora A (Homo sapiens, UniProt O14965); assay: Aurora A inhibitory action (33P-ATP kinase assay, Kemptide substrate); format: biochemical
T2 construct: histidine tag (N); made in house; host or cells: Escherichia coli BL21-CodonPlus(DE3)-RIL
T2 sequence (O14965 1-403): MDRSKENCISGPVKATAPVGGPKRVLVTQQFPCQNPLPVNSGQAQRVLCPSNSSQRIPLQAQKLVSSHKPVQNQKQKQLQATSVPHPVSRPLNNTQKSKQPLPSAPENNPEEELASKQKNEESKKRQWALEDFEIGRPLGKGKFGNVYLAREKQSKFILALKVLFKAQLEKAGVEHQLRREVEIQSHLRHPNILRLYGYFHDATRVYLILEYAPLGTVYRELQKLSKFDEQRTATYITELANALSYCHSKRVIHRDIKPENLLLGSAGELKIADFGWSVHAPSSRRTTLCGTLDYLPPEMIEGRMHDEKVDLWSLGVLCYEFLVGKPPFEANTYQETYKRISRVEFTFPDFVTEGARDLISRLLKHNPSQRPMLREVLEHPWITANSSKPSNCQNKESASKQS
Experimental: The Escherichia coli cells were recovered and solubilized, and then the histidine-tagged Aurora A protein was adsorbed onto a nickel chelate column and eluted from the column with imidazole. The active fraction was desalted with a desalting column to give a pure enzyme.
Then, 10 μL of 350 mM phosphate buffer was added to the reaction system to stop the reaction. The substrate peptide was adsorbed on a P81 paper filter 96-well plate and then washed with 130 mM phosphate buffer for several times. The radiation activity of the peptide was measured with a liquid scintillation counter. The [γ-^33P] labeled ATP was purchased from Amersham Biosciences Co., Ltd.

[3] = 20 μM unlabeled ATP, 100 μM substrate peptide, 30° C. for 20 minutes, read-out: Inhibitory activity for Aurora A (IC50)

T1 sequence (Q96GD4 whole entry): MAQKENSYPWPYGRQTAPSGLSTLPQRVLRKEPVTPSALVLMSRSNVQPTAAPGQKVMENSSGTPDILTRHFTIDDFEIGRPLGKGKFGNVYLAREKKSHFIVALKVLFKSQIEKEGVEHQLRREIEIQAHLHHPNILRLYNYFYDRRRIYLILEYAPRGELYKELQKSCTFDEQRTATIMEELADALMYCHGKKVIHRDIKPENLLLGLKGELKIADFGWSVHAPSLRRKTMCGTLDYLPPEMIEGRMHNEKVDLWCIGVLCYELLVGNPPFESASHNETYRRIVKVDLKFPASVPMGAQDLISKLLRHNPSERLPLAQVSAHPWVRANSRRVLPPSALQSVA

| IC50 [1] [µM] | IC50 [2] [µM] | Structure (SMILES) | IC50 [2, 3] [µM] |
| --- | --- | --- | --- |
| 0.73 | 0.0023 | CO[C@@]12CCN(C(=O)O[C@@H](C)C(F)(F)F)[C@@H]1CN(c1nc(C)cc(Nc3cc[nH]n3)n1)C2 [Example 1, (2S)-1,1,1-trifluoropropan-2-yl (3aR,6aR)-3a-metboxy-5-[4-methyl-6-(1H-pyrazol-3-ylamino)pyrimidin-2-yl]hexahydropyrrolo[3,4-b]pyrrole-1(2H)-carboxylate] |  |
| 0.085 |  | Cc1cc(Nc2cc[nH]n2)nc(N2C[C@@H]3[C@@H](C2)OCCN3C(=O)O[C@@H](C)C(F)(F)F)n1 [Example 2, (2S)-1,1,1-trifluoropropan-2-yl (4aR,7aR)-6-[4-methyl-6-(1H-pyrazol-3-ylamino)pyrimidin-2-yl]hexahydropyrrolo[3,4-b][1,4]oxazine-4(4aH)-carboxylate] | 0.0013 |

| Structure (SMILES) | IC50 [1] [µM] | IC50 [2] [µM] | IC50 [2, 3] [µM] |
| --- | --- | --- | --- |
| Cc1cc(Nc2cc[nH]n2)nc(N2C[C@@H]3[C@@H](C2)OCCN3C(=O)OC(C)(C)C(F)(F)F)n1 [Example 3, 1,1,1-trifluoro-2-methylpropan-2-yl (4aR,7aR)-6-[4-methyl-6-(1H-pyrazol-3-ylamino)pyrimidin-2-yl]hexahydropyrrolo[3,4-b][1,4]oxazine-4(4aH)-carboxylate] | 0.87 |  | 0.0054 |
